Earlier results in US5883103A, “Oral acyclovir delivery” (priority 1995, dated 1999).

Key:
[1] = test system: cellular α-DNA polymerase; settings: compared with viral DNA polymerase
varicella-zoster = settings: in vivo
[2] = test system: herpes simplex virus (HSV), cytomegalovirus (CMV) and varicella-zoster
[3] = test system: TK encoded by HSV, varicella zoster, and EBV
[4] = test system: herpes simplex types 2 (HSV-2)
[5] = test system: thymidine kinase (TK) expressed by uninfected normal cells
[6] = oral
[7] = test system: herpes simplex types I (HSV-1)

SMILES	effect on viral DNA polymerase (viral DNA polymerase)	effect on cellular α-DNA polymerase [1]	effect on symptoms of acute varicella-zoster disease (varicella-zoster)	safety and efficacy in treatment of viral disease ([2]; immunocompromised and immunocompetent patients)	suppression of reactivated or newly acquired viral diseases ([2]; oral administration, genital herpes simplex, shingles, acute varicella-zoster)	morbidity and mortality from viral disease ([2]; pre- and postoperative prophylaxis, long-term (>6 months) oral)	conversion by viral TK [3]	inhibition of CMV (cytomegalovirus (CMV))	toxicity in vitro for uninfected normal cells (uninfected normal cells)	inhibition of varicella zoster (varicella zoster)	inhibition of HSV-2 [4]	substrate for TK of uninfected normal cells [5]	absorption [6]	bioavailability [6]	inhibition of HSV-1 [7]	inhibition of EBV (Epstein-Barr virus (EBV))
Nc1nc2c(ncn2COCCOP(=O)(O)OP(=O)(O)OP(=O)(O)O)c(=O)[nH]1 [Acyclovir triphosphate]	interferes with viral DNA polymerase	to a lesser degree	–	–	–	–	–	–	–	–	–	–	–	–	–	–
Nc1nc2c(ncn2COCCO)c(=O)[nH]1 [acyclovir, 2-amino-1,9-dihydro-9-[(2-hydroxy-ethoxy)methyl]-6H-purin-6-one]	–	–	reduces fever, chronic pain, the progression of rash and accelerates cutaneous healing	safe and effective	suppression of reactivated or newly acquired viral diseases	reduced	converts acyclovir into acyclovir monophosphate	inhibits	much less toxic in vitro for uninfected normal cells	inhibits	inhibits	not a substrate	slowly and erratically absorbed	15-30%	inhibits	inhibits
